Measurements published in ChEMBL document CHEMBL1201862, “PubChem BioAssay data set” (2004).
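1) Cells in 96-well plates. 2) Compound, 48 h, 5 concentrations. 3) Linear interpolation between surrounding doses. 4) Unreached endpoint = highest concentration. GI50 = concentration required for 50% inhibition of growth.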 Activity calls are given as the source filed them. Rule as the data show it: active = GI50 up to about 1.1 µM and inactive = higher.

Assays:
Test in all cases: NCI-60 cell line screen, 48 h
UO-31 = system: UO-31
KM-20L2 = system: KM-20L2
OVCAR-8 = system: OVCAR-8
CAKI-1 = system: CAKI-1
A549 = system: A549
NCI-H226 = system: NCI-H226
MOLT-4 = system: MOLT-4
A498 = system: A498
HT-29 = system: HT-29
EKVX = system: EKVX
786-0 = system: 786-0
DMS-273 = system: DMS-273
HCT-15 = system: HCT-15
IGROV-1 = system: IGROV-1
HCC 2998 = system: HCC 2998
NCI-H23 = system: NCI-H23
TK-10 = system: TK-10
M14 = system: M14
SK-MEL-28 = system: SK-MEL-28
ACHN = system: ACHN
SNB-19 = system: SNB-19
HOP-18 = system: HOP-18
HCT-116 = system: HCT-116
OVCAR-5 = system: OVCAR-5
SK-MEL-5 = system: SK-MEL-5
SK-OV-3 = system: SK-OV-3
UACC-257 = system: UACC-257
RXF 631 = system: RXF 631
COLO 205 = system: COLO 205
SF-268 = system: SF-268
SNB-75 = system: SNB-75
SR = system: SR
NCI-H522 = system: NCI-H522
OVCAR-4 = system: OVCAR-4
DLD-1 = system: DLD-1
SNB-78 = system: SNB-78
RPMI-8226 = system: RPMI-8226
SN12C = system: SN12C
SK-MEL-2 = system: SK-MEL-2
UACC-62 = system: UACC-62
HOP-92 = system: HOP-92
LOX IMVI = system: LOX IMVI
U-251 = system: U-251
M19-MEL = system: M19-MEL
KM12 = system: KM12
NCI-H460 = system: NCI-H460
Malme-3M = system: Malme-3M
SW-620 = system: SW-620
RXF 393 = system: RXF 393
HL-60 = system: HL-60
OVCAR-3 = system: OVCAR-3
LXFL 529 = system: LXFL 529
HOP-62 = system: HOP-62
SF-295 = system: SF-295
CCRF-CEM = system: CCRF-CEM
K562 = system: K562
DMS-114 = system: DMS-114
SF-539 = system: SF-539

Measured: GI50

CC(=O)OC1=C2CC3(C)OC(=O)CC(C)(C)C3=CC=C2C=C(C(C)C)C1=O (configuration not stated)
active: OVCAR-8 288 nM | MOLT-4 294 nM | HT-29 1070 nM | 786-0 203 nM | DMS-273 916 nM | IGROV-1 845 nM | HCC 2998 877 nM | NCI-H23 420 nM | M14 334 nM | SK-MEL-28 456 nM | ACHN 518 nM | HCT-116 410 nM | OVCAR-5 912 nM | SK-MEL-5 826 nM | UACC-257 490 nM | RXF 631 723 nM | COLO 205 631 nM | SF-268 1050 nM | SNB-75 710 nM | SR 278 nM | NCI-H522 189 nM | OVCAR-4 299 nM | DLD-1 203 nM | SNB-78 282 nM | RPMI-8226 220 nM | SN12C 684 nM | SK-MEL-2 459 nM | UACC-62 268 nM | HOP-92 207 nM | LOX IMVI 201 nM | M19-MEL 526 nM | Malme-3M 356 nM | SW-620 316 nM | RXF 393 184 nM | HL-60 280 nM | LXFL 529 157 nM | CCRF-CEM 316 nM | K562 307 nM | DMS-114 366 nM
inactive: UO-31 1740 nM | KM-20L2 1620 nM | CAKI-1 1560 nM | A549 1900 nM | NCI-H226 1740 nM | A498 1570 nM | EKVX 1890 nM | TK-10 1210 nM | SNB-19 1830 nM | HOP-18 1160 nM | SK-OV-3 2090 nM | U-251 1600 nM | KM12 1150 nM | NCI-H460 1510 nM | OVCAR-3 1130 nM | HOP-62 11400 nM | SF-295 1660 nM
179 nM: HCT-15

CC(C)=CC(=O)Cc1nc2cc(C)c(C)cc2[nH]c1=O
> 100000 nM: HCT-15
inactive: UO-31 75000 nM | KM-20L2 > 100000 nM | CAKI-1 > 100000 nM | A549 > 100000 nM | NCI-H226 > 100000 nM | MOLT-4 > 100000 nM | A498 > 100000 nM | HT-29 > 100000 nM | EKVX 9890 nM | 786-0 > 100000 nM | DMS-273 > 100000 nM | IGROV-1 > 100000 nM | HCC 2998 > 100000 nM | NCI-H23 > 100000 nM | SF-539 > 100000 nM | TK-10 > 100000 nM | M14 > 100000 nM | SK-MEL-28 > 100000 nM | ACHN > 100000 nM | SNB-19 > 100000 nM | HOP-18 > 100000 nM | HCT-116 > 100000 nM | OVCAR-5 > 100000 nM | SK-MEL-5 > 100000 nM | SK-OV-3 > 100000 nM | UACC-257 > 100000 nM | RXF 631 > 100000 nM | COLO 205 > 100000 nM | SF-268 99300 nM | SNB-75 > 100000 nM | SR > 100000 nM | OVCAR-4 87100 nM | DLD-1 > 100000 nM | SNB-78 > 100000 nM | RPMI-8226 > 100000 nM | SN12C > 100000 nM | SK-MEL-2 > 100000 nM | UACC-62 > 100000 nM | HOP-92 24900 nM | LOX IMVI > 100000 nM | U-251 > 100000 nM | M19-MEL > 100000 nM | KM12 > 100000 nM | NCI-H460 > 100000 nM | Malme-3M > 100000 nM | SW-620 > 100000 nM | RXF 393 64900 nM | HL-60 > 100000 nM | OVCAR-3 > 100000 nM | LXFL 529 > 100000 nM | HOP-62 17900 nM | SF-295 90400 nM | CCRF-CEM > 100000 nM | K562 > 100000 nM
